Read-outs that look alike come from different tables or passages of the source. Marks after values point to notes of the source that are not given here.
Columns and labels:
[1] = ORAC (oxygen radical absorption capacity) assay; settings: fluorescein/AAPH; read-out: ORAC, concentration necessary to halve the fluorescence response (IC50)
Protocol: Antioxidant capacity of samples was determined by ORAC (oxygen radical absorption capacity) and CAA (cellular antioxidant activity) assays. ORAC assay was realized by the previously described protocol. Briefly, 50 µL of the fluorescein solution (1.6 µg/mL in phosphate-buffered saline (PBS), pH 7.4) was added by a dispenser (MultiFlo Microplate Dispenser, BioTek Instrument, Winooski, VT, USA) into each well of a 96-well plate. Subsequently, 2 µL of tested compound in the concentration range 1.25–20 µM and 23 µL of PBS were added to the wells. The plate was incubated for 15 min at 37 °C and then 25 µL of AAPH (60 mg/mL) was added to each well. AAPH was replaced with PBS for the negative control. Immediately, the fluorescence was recorded by the microplate reader (SpectraMax i3 Multi-Mode Detection Platform, Molecular Devices, San Jose, CA, USA) for 2 h in 5 min steps (excitation/emission 485/535 nm).

TNF-α = TNF-α release by LPS-induced macrophages (ELISA); format: cell-based, mouse; settings: for IC50: Mus musculus
Protocol: To determine the level of inflammatory cytokine TNF-α, macrophages were pre-cultivated with the tested compounds (12.5–50 µM) for 24 h. Thereafter, the plates were washed with PBS and new MEM medium enriched with LPS (1 µg/mL) was added to the wells. After 2 h of incubation, the plates were centrifuged (1000× g; 10 min, 4 °C) and then the medium was removed and frozen to −80 °C. Prior to the detection, the samples were diluted in ELISA diluent in a 1:10 ratio. […]

ABCB2 = ABCB2 mRNA expression (real-time PCR); format: cell-based, human; settings: A2780/DOX, 10 µM combined with doxorubicin at IC25, 48 h
Protocol: (§1) The A2780/DOX cell line was seeded into 5 cm Petri dishes with DMEM medium at 1 × 10^5 cell/mL. After 24 h, the dishes were washed with PBS and new DMEM medium supplemented with doxorubicin (at concentration equal to IC25) and samples (10 µM) were added. After 48 h of treatment, the cells were washed with PBS and harvested using the standard trypsin-EDTA procedure. The harvested cells were centrifuged (3200× g; 10 min, 4 °C). The supernatant was discarded, and the pellets were washed with 1.5 mL of cooled PBS (5400× g; 10 min, 4 °C). The washing step was repeated with 1 mL of PBS and the cells were centrifuged again (10,000× g; 3 min, 4 °C). Afterwards, the pellets were resuspended in 1 mL of Trizol (Invitrogen, Carlsbad, CA, USA) and transferred into pre-cooled RNase-free microfuge tubes. The samples were stored at −80 °C.
(§2) A Quant-iT RiboGreen RNA Assay Kit (Invitrogen) was used to determine the RNA concentration using the Infinite M200 plate reader (Tecan, Männedor, Switzerland). The cDNA was prepared from 0.5 µg of total RNA using a RevertAid First Strand Synthesis cDNA Kit (MBI Fermentas, Vilnius, Lithuania). The amplification of the ubiquitin C gene fragment was used to determine the quality of cDNA.
(§3) The experiment was performed using the ViiA7 Real-Time polymerase chain reaction (PCR) System (Life Technologies, Camarillo, CA, USA) with a 384-well block. Before quantitative real-time PCR, the master mix was prepared by mixing 2 µL of 8 × diluted cDNA, 1.75 µL of RNase free water, 1 µL of 5 × HotFIREPol Probe quantitative PCR Mix Plus (Solis Biodyne, Tartu, Estonia) and 0.25 µL of specific 20 × TaqMan Gene Expression Assay (Life Technologies), giving 5 µL of final reaction volume. Cycling parameters were: initial hold at 50 °C for 2 min and denaturation at 95 °C for 10 min, followed by 45 cycles consisting of denaturation at 95 °C for 15 s and annealing/extension at 60 °C for 1 min. After each extension phase, the fluorescence values were acquired. Duplicate samples were used for measurement and samples with a standard deviation of duplicates > 1.0 cycle threshold (Ct) were re-analyzed. The real time PCR procedure was maintained according to MIQE (Minimum information for publication of quantitative real-time PCR experiments) guidelines. The software REST 2009 (Qiagen, Hilden, Germany) served to compare relative transcript levels of genes in the cell line.

ABCB9 = ABCB9 mRNA expression (real-time PCR); format: cell-based, human; settings: A2780/DOX, 10 µM combined with doxorubicin at IC25, 48 h
Protocol: as §1, §2, §3

ABCB10 = ABCB10 mRNA expression (real-time PCR); format: cell-based, human; settings: A2780/DOX
Protocol: as §1, with “After 24 h, the dishes were washed with PBS and new DMEM medium supplemented with doxorubicin (at concentration equal to IC25) and samples (10 µM) were added.” left out
as §2, §3

ABCC1 (MRP1) = test: ABCC1 mRNA expression (real-time PCR); format: cell-based, human
Protocol: as §1, §2, §3

ABCD1 = ABCD1 mRNA expression (real-time PCR); format: cell-based, human; settings: A2780/DOX
Protocol: as §1, §2, §3

ABCD3 = ABCD3 mRNA expression (real-time PCR); format: cell-based, human; settings: A2780/DOX
Protocol: as §1, §2, §3

ABCF3 = ABCF3 mRNA expression (real-time PCR); format: cell-based, human; settings: A2780/DOX
Protocol: as §1, with “After 24 h, the dishes were washed with PBS and new DMEM medium supplemented with doxorubicin (at concentration equal to IC25) and samples (10 µM) were added.” left out
as §2, §3

ABCG4 = ABCG4 mRNA expression (real-time PCR); format: cell-based, human; settings: for ABCG4 Expression Difference / ABCG4 Treated vs. Untreated: A2780/DOX
Protocol: as §1, with “After 24 h, the dishes were washed with PBS and new DMEM medium supplemented with doxorubicin (at concentration equal to IC25) and samples (10 µM) were added.” left out
as §2, §3

[2] = RAW264.7, read-out: TNF-α, concentration necessary to halve the release (IC50)
[3] = compound 12.5 µM, untreated LPS control 2954 ± 92
[4] = compound 25 µM, untreated LPS control 2954 ± 92
[5] = compound 50 µM, untreated LPS control 2954 ± 92
[6] = 10 µM combined with doxorubicin at IC25, 48 h
[7] = 10 µM, 48 h, without doxorubicin
[8] = A2780/DOX, 10 µM combined with doxorubicin at IC25, 48 h
[9] = RAW264.7, RAW 264.7, 24 h pre-cultivation, then LPS 2 h, read-out: TNF-α, concentration necessary to halve the release (IC50)
[10] = A2780/DOX, 10 µM, 48 h, without doxorubicin

Row | SMILES | IC50 [1] | IC50 (TNF-α; [2]) | TNF-α (pg/mL) (TNF-α; [3]) | TNF-α (pg/mL) (TNF-α; [4]) | TNF-α (pg/mL) (TNF-α; [5]) | ABCB2 Expression Difference (ABCB2) | ABCB9 Expression Difference (ABCB9) | ABCB10 Expression Difference (ABCB10; [6]) | ABCB10 Expression Difference (ABCB10; [7]) | ABCC1 Expression Difference (ABCC1 (MRP1); [8]) | ABCD1 Expression Difference (ABCD1; [6]) | ABCD3 Expression Difference (ABCD3; [6]) | ABCD3 Expression Difference (ABCD3; [7]) | ABCF3 Expression Difference (ABCF3; [6]) | ABCF3 Expression Difference (ABCF3; [7]) | ABCG4 Expression Difference (ABCG4; [6]) | ABCG4 Expression Difference (ABCG4; [7]) | IC50 (TNF-α; [9]) | ABCD1 Expression Difference (ABCD1; [7]) | ABCG4 Treated vs. Untreated (ABCG4; [7]) | also measured
1 | COc1cc(C2Oc3cc(-c4oc5cc(O)cc(O)c5c(=O)c4O)ccc3OC2CO)ccc1O (stereo not drawn) [Dehydrosilybin AB, 2,3-dehydrosilybin] | 10.1 µM | 26.7 ± 0.1 µM | 2617 ± 118 ^b pg/mL | 2364 ± 108 ^c pg/mL | 0 ± 0 ^a pg/mL | 5.145 | 1.149 | 1.119 | 1.589 | 1.301 | 1.412 | 1.288 | 1.545 | 1.326 | 1.706 | 2.008 | 1.162 | – | – | – | TNF-α (pg/mL) (TNF-α; compound 50 µM, untreated LPS control 2954 ± 92, listed as dehydrosilybin AB): under the detection limit of the ELISA assay
2 | COc1cc([C@@H]2Oc3cc([C@H]4Oc5cc(O)cc(O)c5C(=O)[C@@H]4O)ccc3O[C@H]2CO)ccc1O [Silybin B, silybin B] | 6.8 ± 0.3 µM | – | 2441 ± 68 ^b pg/mL | 2375 ± 64 ^c pg/mL | 1792 ± 63 ^e pg/mL | 15.698 | 1.241 | 0.835 | 0.329 | – | – | – | 0.337 | 1.335 | 0.328 | 4.110 | 0.366 | 53.3 ± 0.7 µM | 0.348 | DOWN | ABCB10 Treated vs. Untreated (ABCB10; [6]): DOWN; ABCB10 Treated vs. Untreated (ABCB10; [7]): DOWN; downregulation of ABCC1 (MRP1) expression (ABCC1 (MRP1); [7]): 59%; ABCC1 Expression Difference (ABCC1 (MRP1); [10]): 0.413; ABCC1 Treated vs. Untreated (ABCC1 (MRP1); [10]): DOWN; ABCD1 Treated vs. Untreated (ABCD1; [7]): DOWN; ABCD3 Treated vs. Untreated (ABCD3; [7]): DOWN; ABCF3 Treated vs. Untreated (ABCF3; [7]): DOWN
3 | COc1cc([C@@H]2Oc3cc(-c4oc5cc(O)cc(O)c5c(=O)c4O)ccc3O[C@H]2CO)ccc1O [Dehydrosilybin B, 2,3-dehydrosilybin B] | 11.8 ± 0.6 µM | 44.2 ± 0.3 µM | 2528 ± 171 ^b pg/mL | 2774 ± 84 ^d pg/mL | 982 ± 25 ^c pg/mL | 9.286 | 1.218 | 1.221 | 1.186 | 1.213 | 1.784 | 1.347 | – | 1.963 | – | 2.860 | 0.736 | – | – | DOWN | downregulation of ABCG4 expression (ABCG4; [7]): 26%
4 | COc1cc([C@H]2Oc3cc(-c4oc5cc(O)cc(O)c5c(=O)c4O)ccc3O[C@@H]2CO)ccc1O [Dehydrosilybin A, 2,3-dehydrosilybin A] | 11.4 ± 1.2 µM | 20.7 ± 0.4 µM | 2338 ± 63 ^ab pg/mL | 777 ± 28 ^a pg/mL | 0 ± 0 ^a pg/mL | 5.557 | 1.109 | 1.020 | 1.236 | 0.907 | 1.435 | 1.043 | – | 1.096 | 1.602 | 1.992 | 0.950 | – | 1.063 | DOWN | decrease of release of TNF-α (TNF-α; compound 25 µM, from 2954 pg/mL to 777 pg/mL): ~4 times; TNF-α (TNF-α; compound 25 µM, untreated LPS control 2954 ± 92, listed as dehydrosilybin A): 777 pg/mL; TNF-α (pg/mL) (TNF-α; compound 50 µM, untreated LPS control 2954 ± 92, listed as dehydrosilybin A): under the detection limit of the ELISA assay; downregulation of ABCG4 expression (ABCG4; [7]): 5%
5 | COc1cc([C@H]2Oc3cc([C@H]4Oc5cc(O)cc(O)c5C(=O)[C@@H]4O)ccc3O[C@@H]2CO)ccc1O [Silybin A, silybin A] | 6.6 ± 0.3 µM | – | 2092 ± 48 ^a pg/mL | 1476 ± 39 ^b pg/mL | 415 ± 4 ^b pg/mL | 17.975 | 1.586 | 1.060 | 1.136 | 1.711 | – | 1.637 | – | 1.570 | – | 4.751 | 1.185 | 29.9 ± 1.35 µM | 1.187 | – | –
6 | COc1cc(C2Oc3cc([C@H]4Oc5cc(O)cc(O)c5C(=O)[C@@H]4O)ccc3OC2CO)ccc1O (stereo partly drawn) [Silybin AB, silybin] | 7.1 ± 0.6 µM | – | 2497 ± 37 ^b pg/mL | 2425 ± 145 ^c pg/mL | 1177 ± 75 ^d pg/mL | 18.114 | 1.638 | 1.069 | 2.204 | 1.640 | 2.868 | 1.560 | 2.181 | 1.554 | 1.440 | 5.289 | 1.846 | 38.7 µM | – | – | ABCC1 Expression Difference (ABCC1 (MRP1); [10]): 2.521

From paper PMC7278776, “Multidrug Resistance Modulation Activity of Silybin Derivatives and Their Anti-Inflammatory Potential” (Antioxidants, 2020)
